Data: patent US5677274A (The Government of the United States as represented by the …, priority 1993, dated 1997)

Tested on: CHO cells
Type: cell-based, Chinese Hamster

CC[C@@]1([C@@H]2O[C@@H]([C@H]3O[C@@](O)(CO)[C@H](C)C[C@@H]3C)C[C@@H]2C)CC[C@H]([C@]2(C)CC[C@]3(C[C@H](O)[C@@H](C)[C@@H]([C@@H](C)[C@@H](OC)[C@H](C)C(=O)O)O3)O2)O1 [monensin]
decrease in potency of FP33: > 100 fold | protection against the other three fusion proteins: exceeded 20 fold
